Results reported in ChEMBL document CHEMBL3880411, “Multikinase inhibitors for use in the treatment of cancer” (2009).
pIC50: −log10 of the molar value. Active and inactive are the calls of the source. The rule behind the calls is not given here.

Key:
[1] = molecular target: Nuclear factor NF-kappa-B complex (Homo sapiens) (UniProt Q00653+P19838+Q04206); test: Inhibition of NFkappaB (unknown origin); assay type: protein-complex assay
[2] = molecular target: Dual specificity mitogen-activated protein kinase kinase 1 (Homo sapiens, UniProt Q02750); test: Inhibition of MEK1 (unknown origin) using ERK2 as substrate after 40 mins by ELISA
Chain of Dual specificity mitogen-activated protein kinase kinase 1 (Q02750 whole entry): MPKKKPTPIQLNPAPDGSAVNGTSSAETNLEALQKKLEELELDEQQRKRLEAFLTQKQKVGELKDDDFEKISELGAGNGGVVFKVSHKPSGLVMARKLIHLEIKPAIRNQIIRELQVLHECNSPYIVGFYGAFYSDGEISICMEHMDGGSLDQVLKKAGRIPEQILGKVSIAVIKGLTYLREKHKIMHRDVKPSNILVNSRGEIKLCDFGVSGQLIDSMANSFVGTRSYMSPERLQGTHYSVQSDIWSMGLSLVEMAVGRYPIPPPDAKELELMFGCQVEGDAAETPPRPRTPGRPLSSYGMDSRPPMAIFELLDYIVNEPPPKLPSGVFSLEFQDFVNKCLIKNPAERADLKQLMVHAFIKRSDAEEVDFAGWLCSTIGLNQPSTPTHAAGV

Chain of Nuclear factor NF-kappa-B complex (Homo sapiens) (P19838 whole entry, looked up): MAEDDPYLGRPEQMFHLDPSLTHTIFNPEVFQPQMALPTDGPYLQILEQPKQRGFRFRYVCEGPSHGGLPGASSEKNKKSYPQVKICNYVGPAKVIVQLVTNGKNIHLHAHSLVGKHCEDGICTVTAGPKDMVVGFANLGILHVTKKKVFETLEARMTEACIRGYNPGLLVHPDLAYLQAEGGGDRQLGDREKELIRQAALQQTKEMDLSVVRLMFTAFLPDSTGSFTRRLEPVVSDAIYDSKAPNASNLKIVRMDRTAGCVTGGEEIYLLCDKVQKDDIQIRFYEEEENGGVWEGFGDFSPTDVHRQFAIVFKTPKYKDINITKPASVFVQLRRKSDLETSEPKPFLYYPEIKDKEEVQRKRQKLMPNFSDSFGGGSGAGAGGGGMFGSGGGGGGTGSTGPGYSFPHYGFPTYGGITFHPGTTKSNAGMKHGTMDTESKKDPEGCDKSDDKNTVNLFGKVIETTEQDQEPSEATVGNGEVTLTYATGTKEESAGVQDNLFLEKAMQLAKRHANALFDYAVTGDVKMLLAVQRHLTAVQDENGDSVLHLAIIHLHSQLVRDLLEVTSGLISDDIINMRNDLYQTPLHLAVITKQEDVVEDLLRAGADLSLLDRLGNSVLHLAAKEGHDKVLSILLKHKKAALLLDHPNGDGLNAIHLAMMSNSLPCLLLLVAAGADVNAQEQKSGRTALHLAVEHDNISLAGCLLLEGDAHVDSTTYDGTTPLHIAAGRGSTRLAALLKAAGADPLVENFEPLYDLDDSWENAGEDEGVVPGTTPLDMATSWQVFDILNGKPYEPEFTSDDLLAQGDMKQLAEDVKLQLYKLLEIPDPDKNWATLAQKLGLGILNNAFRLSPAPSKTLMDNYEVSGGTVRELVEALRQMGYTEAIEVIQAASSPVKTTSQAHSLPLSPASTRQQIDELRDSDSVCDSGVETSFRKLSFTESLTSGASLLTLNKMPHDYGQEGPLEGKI
Chain of Nuclear factor NF-kappa-B complex (Homo sapiens) (Q00653 whole entry, looked up): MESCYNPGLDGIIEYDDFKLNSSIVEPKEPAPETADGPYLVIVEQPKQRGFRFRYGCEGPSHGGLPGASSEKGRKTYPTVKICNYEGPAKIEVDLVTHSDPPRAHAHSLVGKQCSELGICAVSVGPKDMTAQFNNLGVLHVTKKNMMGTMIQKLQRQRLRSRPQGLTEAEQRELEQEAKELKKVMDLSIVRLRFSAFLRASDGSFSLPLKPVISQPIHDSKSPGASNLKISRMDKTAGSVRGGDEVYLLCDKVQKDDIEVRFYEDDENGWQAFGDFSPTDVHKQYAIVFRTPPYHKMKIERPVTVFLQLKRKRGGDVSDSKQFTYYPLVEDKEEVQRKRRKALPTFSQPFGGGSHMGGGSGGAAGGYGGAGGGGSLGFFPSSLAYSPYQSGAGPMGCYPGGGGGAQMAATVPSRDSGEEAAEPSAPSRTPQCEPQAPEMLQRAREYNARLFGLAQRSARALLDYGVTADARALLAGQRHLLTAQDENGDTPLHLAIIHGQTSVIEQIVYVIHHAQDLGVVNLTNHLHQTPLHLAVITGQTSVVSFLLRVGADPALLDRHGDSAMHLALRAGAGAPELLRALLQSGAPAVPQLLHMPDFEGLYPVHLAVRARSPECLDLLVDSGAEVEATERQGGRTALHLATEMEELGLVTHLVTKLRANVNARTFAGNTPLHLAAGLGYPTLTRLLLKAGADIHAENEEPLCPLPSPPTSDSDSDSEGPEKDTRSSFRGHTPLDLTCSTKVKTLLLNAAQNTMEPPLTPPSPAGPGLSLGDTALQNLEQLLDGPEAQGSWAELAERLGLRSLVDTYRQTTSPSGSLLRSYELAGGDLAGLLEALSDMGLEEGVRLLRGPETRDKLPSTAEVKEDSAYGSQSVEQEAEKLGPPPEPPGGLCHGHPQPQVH
Chain of Nuclear factor NF-kappa-B complex (Homo sapiens) (Q04206 whole entry, looked up): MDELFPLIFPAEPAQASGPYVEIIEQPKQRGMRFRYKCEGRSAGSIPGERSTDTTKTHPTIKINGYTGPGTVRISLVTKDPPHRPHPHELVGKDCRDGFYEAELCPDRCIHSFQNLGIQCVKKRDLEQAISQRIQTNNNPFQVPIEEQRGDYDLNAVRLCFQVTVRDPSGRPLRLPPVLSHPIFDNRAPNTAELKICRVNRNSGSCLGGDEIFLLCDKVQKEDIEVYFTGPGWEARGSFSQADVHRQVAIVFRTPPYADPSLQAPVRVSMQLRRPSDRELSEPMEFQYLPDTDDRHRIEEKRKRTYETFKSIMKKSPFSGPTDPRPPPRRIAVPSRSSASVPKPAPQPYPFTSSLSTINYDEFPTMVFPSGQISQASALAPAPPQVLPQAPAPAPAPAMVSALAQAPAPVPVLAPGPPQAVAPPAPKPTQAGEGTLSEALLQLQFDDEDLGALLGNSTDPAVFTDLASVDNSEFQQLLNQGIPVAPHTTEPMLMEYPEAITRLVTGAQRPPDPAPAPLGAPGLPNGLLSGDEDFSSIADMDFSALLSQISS

inhibition [1] | pIC50 [2] | SMILES
Active | 6.18 | C[C@@H]1/C=C\C(=O)[C@@H](O)[C@@H](O)C/C=C/c2cc(NCCNCC(O)CO)cc(O)c2C(=O)O[C@H]1C (some centres undefined)
Active | 6.18 | CNC(=O)CNc1cc(O)c2c(c1)/C=C/C[C@H](O)[C@H](O)C(=O)/C=C\[C@@H](C)[C@H](C)OC2=O
Active | 6.44 | C[C@@H]1/C=C\C(=O)[C@@H](O)[C@@H](O)C/C=C/c2cc(NCC(=O)O)cc(O)c2C(=O)O[C@H]1C
Active | 6.07 | C[C@@H]1/C=C\C(=O)[C@@H](O)[C@@H](O)C/C=C/c2cc(NCCNCCO)cc(O)c2C(=O)O[C@H]1C
Active | 7.10 | CCNc1cc(O)c2c(c1)/C=C/C[C@H](OC(=O)C(F)(F)F)[C@@H](O)C(=O)/C=C\[C@@H](C)[C@H](C)OC2=O
Active | 6.92 | C[C@@H]1/C=C\C(=O)[C@@H](O)[C@@H](O)C/C=C/c2cc(NCCn3ccnc3)cc(O)c2C(=O)O[C@H]1C
Active | 6.73 | C[C@@H]1/C=C\C(=O)[C@@H](O)[C@@H](O)C/C=C/c2cc(NOC[C@H](O)CO)cc(O)c2C(=O)O[C@H]1C
Active | 6.45 | C[C@@H]1/C=C\C(=O)[C@@H](O)[C@@H](O)C/C=C/c2cc(NCC3CCNCC3)cc(O)c2C(=O)O[C@H]1C
Active | 6.32 | C[C@@H]1/C=C\C(=O)[C@@H](O)[C@@H](O)C/C=C/c2cc(N3CCNC3=O)cc(O)c2C(=O)O[C@H]1C
Active | 7.43 to 8.02 | C[C@@H]1/C=C\C(=O)[C@@H](O)[C@@H](O)C/C=C/c2cc(CCCn3ccnc3)cc(O)c2C(=O)O[C@H]1C
Active | 6.19 to 6.45 | C[C@@H]1/C=C\C(=O)[C@@H](O)[C@@H](O)C/C=C/c2cc(NCCN3CCCC3)cc(O)c2C(=O)O[C@H]1C
Active | 7.00 to 7.04 | C[C@@H]1/C=C\C(=O)[C@@H](O)[C@@H](O)C/C=C/c2cc(NCCN3CCOCC3)cc(O)c2C(=O)O[C@H]1C
Active | 6.02 to 6.33 | C[C@@H]1/C=C\C(=O)[C@@H](O)[C@@H](O)C/C=C/c2cc(NCCN3CCN(C)CC3)cc(O)c2C(=O)O[C@H]1C
Active | < 6.48 | C[C@@H]1/C=C\C(=O)[C@@H](O)[C@@H](O)C/C=C/c2cc(NCCOP(=O)(O)O)cc(O)c2C(=O)O[C@H]1C
Active | 6.18 | C[C@@H]1/C=C\C(=O)[C@@H](O)[C@@H](O)C/C=C/c2cc(NC3CC3)cc(O)c2C(=O)O[C@H]1C
Active | 6.12 | COCCOCCOCCNCNc1cc(O)c2c(c1)/C=C/C[C@H](O)[C@H](O)C(=O)/C=C\[C@@H](C)[C@H](C)OC2=O
Active |  | CNc1cc(O)c2c(c1)/C=C/C[C@H](O)[C@@H](O)C(=O)/C=C\[C@@H](C)[C@H](C)OC2=O
Active | 7.00 to 7.25 | C[C@@H]1/C=C\C(=O)[C@@H](O)[C@@H](O)C/C=C/c2cc(NCC(O)CO)cc(O)c2C(=O)O[C@H]1C (some centres undefined)
Active | < 6.48 | C[C@@H]1/C=C\C(=O)[C@@H](O)[C@@H](O)C/C=C/c2cc(NOCC(=O)O)cc(O)c2C(=O)O[C@H]1C
Active | 6.50 | C[C@@H]1/C=C\C(=O)[C@@H](O)[C@@H](O)C/C=C/c2cc(NCC(=O)N(C)C)cc(O)c2C(=O)O[C@H]1C
Active | 6.84 | CCNc1cc(O)c2c(c1)/C=C/C[C@@H]1OC(=O)O[C@@H]1C(=O)/C=C\[C@@H](C)[C@H](C)OC2=O
Active | 6.73 | C[C@@H]1/C=C\C(=O)[C@@H](O)[C@@H](O)C/C=C/c2cc(N3CCOC3=O)cc(O)c2C(=O)O[C@H]1C
Active | 6.70 to 7.04 | C[C@@H]1/C=C\C(=O)[C@@H](O)[C@@H](O)C/C=C/c2cc(NCCO)cc(O)c2C(=O)O[C@H]1C
Active |  | CNc1cc(O)c2c(c1)/C=C/C[C@H](O)[C@@H](O)C(=O)/C=C/[C@@H](C)[C@H](C)OC2=O
Active | 6.51 to 7.00 | C[C@@H]1/C=C\C(=O)[C@@H](O)[C@@H](O)C/C=C/c2cc(NCC(N)=O)cc(O)c2C(=O)O[C@H]1C
Active | 6.76 | COCCNc1cc(O)c2c(c1)/C=C/C[C@H](O)[C@H](O)C(=O)/C=C\[C@@H](C)[C@H](C)OC2=O
Active |  | C[C@@H]1/C=C\C(=O)[C@@H](O)[C@@H](O)C/C=C/c2cc(N(CCNCC(O)CO)C(=O)OC(C)(C)C)cc(O)c2C(=O)O[C@H]1C (some centres undefined)

SMILES | inhibition [1] | pIC50 [2]
CCNc1cc(O)c2c(c1)C#CC[C@H](O)[C@H](O)C(=O)/C=C\[C@@H](C)[C@H](C)OC2=O | Active | 6.74
CCNc1cc(O)c2c(c1)/C=C/C[C@H](O)[C@@H](O)C(=O)/C=C/[C@@H](C)[C@H](C)OC2=O | Active | 
